Source: ChEMBL document CHEMBL4265900, “Discovery of the bifunctional modulator of angiotensin II type 1 receptor (AT1R) and PPARγ derived from the AT1R antagonist, Fimasartan” (Bioorg Med Chem Lett, 2018)
Each block holds one compound with its values, some of them ahead of it. Active and inactive are the calls of the source. The rule behind the calls is not given here.

Columns and labels:
[1] = biological target: T1, Peroxisome proliferator-activated receptor gamma (Homo sapiens) (UniProt P37231); assay: Agonist activity at PPARgamma (unknown origin) at 1 uM relative to telmisartan
T1 sequence (whole entry): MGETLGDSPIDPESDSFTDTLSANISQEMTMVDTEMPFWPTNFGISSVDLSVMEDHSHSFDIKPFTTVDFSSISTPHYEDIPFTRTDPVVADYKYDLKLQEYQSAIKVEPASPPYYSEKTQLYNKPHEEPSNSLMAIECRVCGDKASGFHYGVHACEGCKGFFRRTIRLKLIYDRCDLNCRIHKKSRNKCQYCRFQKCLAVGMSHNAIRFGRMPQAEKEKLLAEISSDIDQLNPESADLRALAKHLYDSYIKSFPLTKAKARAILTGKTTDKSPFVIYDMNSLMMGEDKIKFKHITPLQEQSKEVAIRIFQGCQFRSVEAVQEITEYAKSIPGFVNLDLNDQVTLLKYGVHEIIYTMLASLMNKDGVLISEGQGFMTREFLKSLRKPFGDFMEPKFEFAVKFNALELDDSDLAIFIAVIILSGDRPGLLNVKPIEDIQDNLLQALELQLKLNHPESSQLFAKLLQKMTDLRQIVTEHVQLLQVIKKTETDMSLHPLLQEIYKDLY

[2] = biological target: T2, Type-1 angiotensin II receptor (Homo sapiens, UniProt P30556); assay: Antagonist activity at type-1 angiotensin 2 receptor (unknown origin) by calcium mobilizing assay; format: functional
T2 sequence (P30556 whole entry): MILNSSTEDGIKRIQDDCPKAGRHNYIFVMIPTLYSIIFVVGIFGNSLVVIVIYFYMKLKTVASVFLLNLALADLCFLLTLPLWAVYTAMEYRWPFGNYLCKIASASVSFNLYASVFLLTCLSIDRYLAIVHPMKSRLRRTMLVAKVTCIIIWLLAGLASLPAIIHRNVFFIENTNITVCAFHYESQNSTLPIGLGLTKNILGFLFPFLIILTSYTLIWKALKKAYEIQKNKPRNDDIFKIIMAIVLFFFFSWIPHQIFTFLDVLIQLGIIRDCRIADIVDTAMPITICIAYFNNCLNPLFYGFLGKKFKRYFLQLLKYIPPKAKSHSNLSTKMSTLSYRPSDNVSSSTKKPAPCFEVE

[3] = tested on: Mus musculus; assay: Antidiabetic activity in db/db mouse model assessed as suppression of blood glucose increase at 20 mg/kg qd, po administered for 13 days; format: functional, organism-based
[4] = tested on: Mus musculus; assay: Toxicity in db/db mouse model assessed as suppression of weight gain at 20 mg/kg, po qd measured after 11 days; format: organism-based; details: in vivo, 264 h
[5] = biological target: T3, CYP1A2 (Homo sapiens, UniProt P05177); assay: Inhibition of CYP1A2 (unknown origin) assessed as remaining activity at 10 uM; format: ADME; details: read-out: Activity
T3 sequence (P05177 whole entry): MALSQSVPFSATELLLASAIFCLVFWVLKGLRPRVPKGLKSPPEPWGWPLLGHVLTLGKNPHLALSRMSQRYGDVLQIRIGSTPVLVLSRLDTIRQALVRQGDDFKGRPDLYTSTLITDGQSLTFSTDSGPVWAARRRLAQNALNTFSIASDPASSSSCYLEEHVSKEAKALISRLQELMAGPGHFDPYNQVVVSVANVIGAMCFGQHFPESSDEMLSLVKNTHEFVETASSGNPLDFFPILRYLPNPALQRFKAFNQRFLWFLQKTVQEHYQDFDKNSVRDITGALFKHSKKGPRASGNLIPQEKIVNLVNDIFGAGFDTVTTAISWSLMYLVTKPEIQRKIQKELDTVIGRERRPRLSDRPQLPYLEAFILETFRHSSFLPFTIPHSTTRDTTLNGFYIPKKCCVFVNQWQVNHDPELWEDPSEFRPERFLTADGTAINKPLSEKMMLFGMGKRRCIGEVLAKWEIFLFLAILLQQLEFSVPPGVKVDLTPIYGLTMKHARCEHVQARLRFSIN

[6] = Stability in rat liver microsomes assessed as compound remaining after 30 mins; format: ADME, microsome; details: read-out: Stability
[7] = Stability in mouse liver microsomes assessed as compound remaining after 30 mins; format: ADME, microsome; details: read-out: Stability
[8] = Tmax in rat at 60 mg/kg, po; format: ADME, organism-based; details: in vivo
[9] = biological target: T1, Peroxisome proliferator-activated receptor gamma (Homo sapiens); assay: Agonist activity at PPARgamma (unknown origin) at 1 uM relative to pioglitazone
[10] = Half life in mouse at 60 mg/kg, po; format: ADME, organism-based; details: in vivo
[11] = tested on: Mus musculus; assay: Antidiabetic activity in db/db mouse model assessed as suppression of blood glucose increase at 60 mg/kg qd, po administered for 13 days; format: functional, organism-based
[12] = Ratio of AUClast in rat at 60 mg/kg, po to AUClast in mouse at 60 mg/kg, po; format: ADME, organism-based; details: in vivo
[13] = biological target: T2, Type-1 angiotensin II receptor; assay: Antagonist activity at type-1 angiotensin 2 receptor (unknown origin) by beta-arrestin recruitment assay; format: functional
[14] = Stability in human liver microsomes assessed as compound remaining after 30 mins; format: ADME, microsome; details: read-out: Stability
[15] = Cmax in rat at 60 mg/kg, po; format: ADME, organism-based; design: dose 60 mg/kg, route oral; details: in vivo
[16] = tested on: Rattus norvegicus; assay: Antihypertensive activity in angiotensin 2 induced hypertension rat model at 30 mg/kg, po measured after 24 hrs relative to fimasartan; format: functional
[17] = biological target: T4, Peroxisome proliferator-activated receptor gamma (Homo sapiens, UniProt P37231); assay: Agonist activity at PPARgamma (unknown origin)
T4 sequence (P37231 whole entry): T1 sequence (whole entry)

[18] = Tmax in mouse at 60 mg/kg, po; format: ADME, organism-based; details: in vivo
[19] = tested on: Rattus norvegicus; assay: Antihypertensive activity in angiotensin 2 induced hypertension rat model at 30 mg/kg, po measured until 8 hrs post dose; format: functional, organism-based
[20] = Cmax in mouse at 60 mg/kg, po; format: ADME, organism-based; design: dose 60 mg/kg, route oral; details: in vivo
[21] = biological target: CYP2D6 (Homo sapiens, UniProt P10635); assay: Inhibition of CYP2D6 (unknown origin) assessed as remaining activity at 10 uM; format: ADME; details: read-out: Activity
Chain of CYP2D6 (P10635 whole entry): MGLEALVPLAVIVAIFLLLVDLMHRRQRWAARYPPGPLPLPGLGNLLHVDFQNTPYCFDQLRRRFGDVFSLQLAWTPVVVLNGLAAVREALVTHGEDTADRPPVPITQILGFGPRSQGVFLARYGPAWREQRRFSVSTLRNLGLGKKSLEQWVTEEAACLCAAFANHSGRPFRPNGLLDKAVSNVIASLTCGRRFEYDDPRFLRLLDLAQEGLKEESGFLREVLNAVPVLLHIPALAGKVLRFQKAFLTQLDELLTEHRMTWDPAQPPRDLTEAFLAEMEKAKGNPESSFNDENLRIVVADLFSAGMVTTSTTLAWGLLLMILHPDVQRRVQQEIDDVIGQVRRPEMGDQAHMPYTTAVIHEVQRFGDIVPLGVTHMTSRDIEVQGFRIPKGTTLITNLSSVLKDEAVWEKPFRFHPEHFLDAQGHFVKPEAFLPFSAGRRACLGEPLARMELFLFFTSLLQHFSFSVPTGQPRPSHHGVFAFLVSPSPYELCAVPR

[22] = AUClast in mouse at 60 mg/kg, po; format: ADME, organism-based; design: dose 60 mg/kg, time 0 - last, route oral; details: in vivo
[23] = Half life in rat at 60 mg/kg, po; format: ADME, organism-based; details: in vivo
[24] = biological target: CYP2C19 (Homo sapiens, UniProt P33261); assay: Inhibition of CYP2C19 (unknown origin) assessed as remaining activity at 10 uM; format: ADME; details: read-out: Activity
Chain of CYP2C19 (P33261 whole entry): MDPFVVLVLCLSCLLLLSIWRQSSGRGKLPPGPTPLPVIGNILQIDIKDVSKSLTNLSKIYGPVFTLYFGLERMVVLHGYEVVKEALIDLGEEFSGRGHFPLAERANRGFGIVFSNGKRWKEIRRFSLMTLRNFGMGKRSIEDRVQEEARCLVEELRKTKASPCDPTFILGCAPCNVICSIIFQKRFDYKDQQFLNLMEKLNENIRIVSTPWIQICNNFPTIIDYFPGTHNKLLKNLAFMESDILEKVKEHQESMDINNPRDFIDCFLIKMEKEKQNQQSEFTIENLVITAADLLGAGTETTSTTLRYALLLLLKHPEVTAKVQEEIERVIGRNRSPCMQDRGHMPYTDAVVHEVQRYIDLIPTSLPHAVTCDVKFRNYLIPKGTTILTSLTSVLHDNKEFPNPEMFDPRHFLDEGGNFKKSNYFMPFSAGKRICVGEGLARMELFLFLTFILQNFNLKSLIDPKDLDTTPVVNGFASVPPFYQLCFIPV

[25] = biological target: CYP2C9 (Homo sapiens, UniProt P11712); assay: Inhibition of CYP2C9 (unknown origin) assessed as remaining activity at 10 uM; format: ADME; details: read-out: Activity
Chain of CYP2C9 (P11712 whole entry): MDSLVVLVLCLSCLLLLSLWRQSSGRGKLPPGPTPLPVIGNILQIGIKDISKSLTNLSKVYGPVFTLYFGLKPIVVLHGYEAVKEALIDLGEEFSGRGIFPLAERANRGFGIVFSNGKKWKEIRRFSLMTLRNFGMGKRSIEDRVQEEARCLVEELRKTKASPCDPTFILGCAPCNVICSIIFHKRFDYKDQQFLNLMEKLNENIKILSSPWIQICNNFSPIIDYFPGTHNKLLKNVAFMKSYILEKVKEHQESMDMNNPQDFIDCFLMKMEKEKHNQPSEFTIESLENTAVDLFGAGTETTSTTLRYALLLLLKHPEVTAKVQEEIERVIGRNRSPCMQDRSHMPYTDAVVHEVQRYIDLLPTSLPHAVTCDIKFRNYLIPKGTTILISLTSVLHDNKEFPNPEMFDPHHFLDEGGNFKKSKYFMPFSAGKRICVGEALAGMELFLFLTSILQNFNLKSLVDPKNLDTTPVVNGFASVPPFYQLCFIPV

[26] = AUClast in rat at 60 mg/kg, po; format: ADME, organism-based; design: dose 60 mg/kg, time 0 - last, route oral; details: in vivo
[27] = tested on: Rattus norvegicus; assay: Antihypertensive activity in angiotensin 2 induced hypertension rat model assessed as time required for 50% reduction in blood pressure at 30 mg/kg, po; format: functional
[28] = biological target: CYP3A4 (Homo sapiens, UniProt P08684); assay: Inhibition of CYP3A4 (unknown origin) assessed as remaining activity at 10 uM; format: ADME; details: read-out: Activity
Chain of CYP3A4 (P08684 whole entry): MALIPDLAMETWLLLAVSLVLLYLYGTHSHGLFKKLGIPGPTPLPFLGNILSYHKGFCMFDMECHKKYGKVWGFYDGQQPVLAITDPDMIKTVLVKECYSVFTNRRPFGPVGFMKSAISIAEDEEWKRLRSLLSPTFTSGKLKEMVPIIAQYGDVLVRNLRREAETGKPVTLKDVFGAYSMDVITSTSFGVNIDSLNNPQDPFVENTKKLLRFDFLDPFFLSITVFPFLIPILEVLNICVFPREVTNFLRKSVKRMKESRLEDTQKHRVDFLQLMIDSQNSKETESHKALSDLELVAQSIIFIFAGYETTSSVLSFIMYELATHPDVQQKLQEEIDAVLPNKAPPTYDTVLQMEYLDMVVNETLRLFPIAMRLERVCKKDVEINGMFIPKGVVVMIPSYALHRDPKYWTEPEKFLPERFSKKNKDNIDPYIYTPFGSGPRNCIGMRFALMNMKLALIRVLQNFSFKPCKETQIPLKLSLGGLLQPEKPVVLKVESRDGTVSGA

[29] = Stability in dog liver microsomes assessed as compound remaining after 30 mins; format: ADME, Canis lupus familiaris, microsome; details: read-out: Stability
[30] = biological target: Voltage-gated inwardly rectifying potassium channel KCNH2 (Homo sapiens, UniProt Q12809); assay: Inhibition of human ERG
Chain of Voltage-gated inwardly rectifying potassium channel KCNH2 (Q12809 whole entry): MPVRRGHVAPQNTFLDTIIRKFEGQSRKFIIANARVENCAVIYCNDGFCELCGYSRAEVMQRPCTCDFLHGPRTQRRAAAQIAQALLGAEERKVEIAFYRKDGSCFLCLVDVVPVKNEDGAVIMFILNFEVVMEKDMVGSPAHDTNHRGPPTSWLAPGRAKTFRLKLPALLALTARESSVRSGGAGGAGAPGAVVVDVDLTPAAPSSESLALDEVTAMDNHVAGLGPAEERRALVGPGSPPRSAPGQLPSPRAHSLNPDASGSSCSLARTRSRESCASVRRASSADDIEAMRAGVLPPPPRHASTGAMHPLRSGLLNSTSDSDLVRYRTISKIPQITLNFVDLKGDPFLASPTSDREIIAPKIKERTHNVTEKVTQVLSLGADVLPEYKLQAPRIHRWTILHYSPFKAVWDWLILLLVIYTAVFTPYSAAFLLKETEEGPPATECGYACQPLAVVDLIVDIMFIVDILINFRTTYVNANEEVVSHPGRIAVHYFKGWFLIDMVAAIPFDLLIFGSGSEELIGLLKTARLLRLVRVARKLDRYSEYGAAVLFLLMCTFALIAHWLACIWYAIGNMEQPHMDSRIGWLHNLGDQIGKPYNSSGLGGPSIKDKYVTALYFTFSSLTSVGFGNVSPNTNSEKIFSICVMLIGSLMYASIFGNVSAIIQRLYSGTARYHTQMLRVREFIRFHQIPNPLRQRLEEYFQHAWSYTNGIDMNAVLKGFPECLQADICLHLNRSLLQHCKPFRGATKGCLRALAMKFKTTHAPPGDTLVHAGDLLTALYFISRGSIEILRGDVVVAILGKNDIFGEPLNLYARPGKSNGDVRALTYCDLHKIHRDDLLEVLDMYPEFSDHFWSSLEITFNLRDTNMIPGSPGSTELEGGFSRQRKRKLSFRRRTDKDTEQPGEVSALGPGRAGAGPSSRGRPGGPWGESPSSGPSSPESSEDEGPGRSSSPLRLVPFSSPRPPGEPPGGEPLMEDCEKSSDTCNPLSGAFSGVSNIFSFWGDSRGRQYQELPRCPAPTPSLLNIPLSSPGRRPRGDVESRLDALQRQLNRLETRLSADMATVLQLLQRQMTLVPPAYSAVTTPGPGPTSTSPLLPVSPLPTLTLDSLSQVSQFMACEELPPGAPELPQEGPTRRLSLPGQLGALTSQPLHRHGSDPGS

[31] = tested on: Mus musculus; assay: Toxicity in db/db mouse model assessed as suppression of weight gain at 60 mg/kg, po qd measured after 11 days; format: organism-based; details: in vivo, 264 h
[32] = biological target: T5, Type-1 angiotensin II receptor (Homo sapiens) (UniProt P30556); assay: Antagonist activity at type-1 angiotensin 2 receptor (unknown origin) at 20 nM by calcium mobilizing assay relative to fimasartan; format: functional
T5 sequence (whole entry): T2 sequence (P30556 whole entry)

Activity [1]: 120%
IC50 [2]: 1.6 nM
SMILES: CCCCc1nc(C)c(CC(=S)N(C)C)c(=O)n1Cc1ccc(-c2ccccc2-c2noc(=O)[nH]2)cc1

Activity [1]: 107%
IC50 [2]: 1.2 nM
SMILES: CCCCc1nc(C)c(CC(=S)N2CCCC2C)c(=O)n1Cc1ccc(-c2ccccc2-c2noc(=O)[nH]2)cc1 (configuration not stated)

SMILES: CCc1ccc(CCOc2ccc(CC3SC(=O)NC3=O)cc2)nc1 (configuration not stated) [PIOGLITAZONE]
Activity [3]: Active
Activity [4]: Non-Toxic

activity at 10 µM [5]: 97%
remaining at 0.5 h [6]: 24%
remaining at 0.5 h [7]: 11%
Tmax [8]: 1.17 h
Activity [9]: 66%
half-life [10]: 220 min
Ratio AUC [12]: 4
IC50 [13]: 10.5 nM
remaining at 0.5 h [14]: 13%
Cmax [15]: 2570 ng/mL
EC50 [17]: 3.1 µM
Tmax [18]: 30 min
Activity [1]: 156%
Cmax [20]: 1860 ng/mL
activity at 10 µM [21]: 99%
AUC(0-t) [22]: 2570 ng·h/mL
IC50 [2]: 2.2 nM
half-life [23]: 284 min
activity at 10 µM [24]: 84%
activity at 10 µM [25]: 36%
AUC(0-t) [26]: 13400 ng·h/mL
activity at 10 µM [28]: 62%
remaining at 0.5 h [29]: 62%
SMILES: CCCCc1nc(C(C)C)c(CC(=S)N2CCCC2)c(=O)n1Cc1ccc(-c2ccccc2-c2noc(=O)[nH]2)cc1
Activity [11]: Active
Activity [16]: 50%
Activity [19]: Active
Time [27]: 16 h
IC50 [30]: 7 µM
Activity [31]: Non-Toxic

Activity [1]: 116%
IC50 [2]: 38 nM
SMILES: CCCCc1nc(C)c(CC(=S)N2CCCCC2)c(=O)n1Cc1ccc(-c2ccccc2-c2noc(=O)[nH]2)cc1

Activity [1]: 140%
inhibition [32]: 80%
SMILES: CCCCc1nc(C)c(CC(=S)N(C)C)c(=O)n1Cc1ccc(-c2ccccc2C(=O)O)cc1

Activity [1]: 121%
IC50 [2]: 70 nM
SMILES: CCCCc1nc(C)c(CC(=S)N2CC[C@@H]3CCCC[C@H]32)c(=O)n1Cc1ccc(-c2ccccc2-c2noc(=O)[nH]2)cc1

Activity [1]: 100%
IC50 [2]: 1.8 nM
SMILES: CCCCc1nc(C)c(CC(=S)N2[C@H](C)CC[C@H]2C)c(=O)n1Cc1ccc(-c2ccccc2-c2noc(=O)[nH]2)cc1

Activity [1]: 70%
inhibition [32]: 0%
SMILES: Cc1nc(CC(C)C)n(Cc2ccc(-c3ccccc3-c3noc(=O)[nH]3)cc2)c(=O)c1CC(=S)N(C)C

Activity [1]: 79%
inhibition [32]: 63%
SMILES: CCCCc1nc(C2CC2)c(CC(=S)N2CCCC2)c(=O)n1Cc1ccc(-c2ccccc2-c2noc(=O)[nH]2)cc1
